Assay results as given in patent US20170198196A1, “METHODS FOR CONTROLLING SOURING IN ENGINEERED SYSTEMS” (The Regents of the University of California, priority 2014, published 2017).
“Also recorded” adds a separate entry of the source. Read-outs that look alike come from different tables or passages of the source.

Key:
[1] = system: marine enrichment cultures; assay: Inhibition of sulfide production (Cline assay) in marine enrichment cultures; assay type: cell-based; conditions: for IC50: read-out: IC50 Seawater Sulfide Production
[2] = system: nitrate reducing bacteria; conditions: molybdate treated cell suspensions; cited from earlier work
[3] = system: Desulfovibrio cell suspensions; conditions: molybdate treated, after 60 minutes; cited from earlier work
[4] = system: marine enrichment cultures; assay: organism not typed; assay type: cell-based; conditions: read-out: IC50 Seawater Growth
[5] = marine enrichment cultures, SI>2 classified as selective

Compound | selectivity and potency as inhibitor of sulfidogenesis versus growth, in words [1] | other results
methanesulfonate | very weak and nonspecific inhibitors | 
[O]=[V]([O-])([O-])[O-] [vanadate] | specific inhibitors of sulfide production | 
[O-][I+3]([O-])([O-])O [periodate] |  | selectivity and potency as inhibitor of sulfidogenesis versus growth, in words [1, 5]: nonspecific, but potent inhibitors of all growth
O=[Te](O)O [tellurite] | very potent and selective inhibitors of sulfate reduction | 
phosphite | weak inhibitors and nonselective; also recorded: very weak, nonselective inhibitors of sulfidogenesis | 
[O-][Cl+2]([O-])O [chlorate] | selective inhibitors of sulfidogenesis | 
OP(O)(O)=S [thiophosphate] | weak inhibitors and nonselective; also recorded: very weak, nonselective inhibitors of sulfidogenesis | 
CS(C)(=O)=O [dimethyl sulfone] |  | selectivity and potency as inhibitor of sulfidogenesis versus growth, in words [1, 5]: very weak and nonspecific inhibitors
O=[Se](=O)(O)O [selenate] | very potent and selective inhibitors of sulfate reduction | 
O=[N+]([O-])O [nitrate] | selective inhibitors | Growth/Sulfide Ratio [1]: 41.3; fold higher IC50 than MFP [1]: ~8 fold; IC50 [1]: 6.34 mM
[O]=[W](=[O])([O-])[O-] [tungstate] | specific inhibitors of sulfide production | selectivity index (SI = growth IC50/sulfide IC50) [1]: 589
O=NO [nitrite] | selective inhibitors | selectivity index (SI = growth IC50/sulfide IC50) [1]: ≈ 2
O=[Te](=O)(O)O [tellurate] | very potent and selective inhibitors of sulfate reduction | 
O=[Se](O)O [selenite] | very potent and selective inhibitors of sulfate reduction | 
O=S(=O)(O)O [sulfate] | only inhibited growth and sulfidogenesis at high millimolar concentrations | 
O=S(O)O [sulfite] | only inhibited growth and sulfidogenesis at high millimolar concentrations | 
[O]=[Mo](=[O])([O-])[O-] [molybdate] | specific inhibitors of sulfide production | selectivity index (SI = growth IC50/sulfide IC50) [1]: 100; intracellular ATP relative to controls [2]: ~80%; intracellular ATP relative to controls [3]: ~10%
[O-][Cl+3]([O-])([O-])O [perchlorate] | selective inhibitors of sulfidogenesis | Growth/Sulfide Ratio [1]: 11.19; IC50 [1]: 3.25 mM; IC50 [4]: 36.3 mM
arsenate | not selective | 
N.NS(=O)(=O)O [ammonium sulfamate] | very weak and nonspecific inhibitors | 
